# Data from US8729023B2 (priority 2002, dated 2014).
# Where “and” joins values, the source holds several entries; their conditions need not be identical. Equal values may be shown once.
# Legend:
# [1] = system: breast tissue of cancer-free and breast tumor-bearing rats; assay: Effect of BQ788 on ET-1-induced changes in perfusion, CMBC and velocity of blood cells in breast tissue; type: in vivo, rat
# [2] = system: breast tissue of cancer-free and breast tumor-bearing rats; assay: Effect of ET-1 on perfusion, CMBC and velocity of blood cells in breast tissue, laser Doppler flowmetry; type: in vivo, rat
# Protocol: MNU and saline treatments were performed as i.p. injections three months prior to the studies. Rats were palpated regularly starting four weeks after the treatments. Once tumors reached about 4-8 mm in diameter, experiments were initiated.
# Rats were initially divided into two groups, each receiving one of the following treatments: • Group I: ET-1 (50 ng/kg/min) infusion for 30 minutes in rats treated with saline (normal rats) (N=6); and • Group II: ET-1 (50 ng/kg/min) infusion for 30 minutes in treated with MNU (50 mg/kg, i.p.; tumor rats) (N=6).
# Systemic hemodynamic and regional circulation parameters were determined at baseline, 30, 60, and 120 minutes after starting ET-1 (50 ng/kg/min) infusion.
# Blood perfusion to the mammary gland of the rats was measured using laser Doppler flowmetry. See Song et al., Int J Radiat Oncol Biol Phys, 18:903 (1990); Song et al., Int J Radiat Oncol Biol Phys, 17:1041 (1989). The animals were shaved around the nipples. The skin surrounding the mammary glands was dissected out as a lambeau about 6 cm wide and about 4 cm long. A standard model fiber optic probe was applied to the surface of the lambeau, and secured to the tissue by double stick tape. The lambeau was placed in a metal holder and taped down to prevent movement, then connected to a Periflux PF2b 4000 Laser Doppler Flowmetry (Perimed K B, Stockholm, Sweden). The time constant was set at 1.5 seconds and the bandwidth was set at 4 KHz. Data were analyzed using analysis of variance followed by Duncan's test. A level of p<0.05 was considered significant.
# [3] = system: breast tissue of cancer-free and breast tumor-bearing rats; assay: Effect of ET-1 infusion on blood flow and regional vascular resistance in breast tissue, microspheres; type: in vivo, rat
# [4] = Effect of ET-1 infusion on systemic hemodynamics, radioactive microsphere technique; type: in vivo, rat; conditions: ET-1 50 ng/kg/min infusion for 30 minutes
# [5] = system: human melanoma cells (UISO-MEL-2) tumor; conditions: nude, mouse, in vivo
# [6] = system: MNU-induced breast tumors; conditions: rat, in vivo
# in vivo = conditions: female, Sprague Dawley, rat
# [7] = rat, in vivo
# [8] = system: JHU-4 (MAT-LyLu) prostate tumor; conditions: rat, in vivo
# [9] = normal saline-treated rats, ET-1 50 ng/kg/min infusion for 30 minutes
# [10] = tumor-bearing rats, at 30 minutes
# [11] = tumor-bearing rats, at 60 minutes
# [12] = tumor-bearing rats, at 120 minutes
# [13] = female, Sprague Dawley, iv, 3 nmol/kg
smiles,measurement,setting,value
"CCCC[C@@H](NC(=O)[C@@H](Cc1cn(C(=O)OC)c2ccccc12)NC(=O)[C@H](CC(C)(C)C)NC(=O)N1[C@H](C)CCC[C@@H]1C)C(=O)O [BQ788, N-cis-2,6-dimethylpiperidinocarbonyl-L-gamma-methyll-eucyl-D-1-methoxycarbonyltrptophanyl-D-Nle]",CMBC of tumor-bearing versus normal rats,[1]; after BQ788 infusion,no difference
same,"velocity of RBC, tumor-bearing versus normal rats",[1]; after BQ788 infusion,no difference
same,perfusion in breast tissue of tumor-bearing rats versus normal rats,[1]; following ET-1 administration in BQ788 pretreated rats,No difference
same,blood perfusion in the breast tissue,"[1]; normal rats, BQ788 0.5 μmol/kg infusion for 20 minutes followed by ET-1 50 ng/kg/min for 30 minutes",did not change significantly
same,effect of pretreatment on the increase in perfusion induced by ET-1,[1]; tumor-bearing rats,attenuated
CC[C@H](C)[C@H](NC(=O)[C@H](CC(=O)O)NC(=O)[C@H](CC(C)C)NC(=O)[C@H](Cc1c[nH]cn1)NC(=O)[C@@H]1CSSC[C@H](N)C(=O)N[C@@H](CO)C(=O)N[C@H]2CSSC[C@H](NC(=O)[C@H](CCC(=O)O)NC(=O)[C@H](CCCCN)NC(=O)[C@H](CC(=O)O)NC(=O)[C@H](CCSC)NC(=O)[C@H](CC(C)C)NC(=O)[C@H](CO)NC(=O)[C@H](CO)NC2=O)C(=O)N[C@@H](C(C)C)C(=O)N[C@@H](Cc2ccc(O)cc2)C(=O)N[C@@H](Cc2ccccc2)C(=O)N1)C(=O)N[C@H](C(=O)N[C@@H](Cc1c[nH]c2ccccc12)C(=O)O)[C@@H](C)CC [ET-1],velocity of RBC in tumor-bearing rats,[2]; 120 minutes after ET-1 administration,returned to baseline
same,perfusion in the breast tissue of tumor-bearing rats,[2]; at 60 and 120 minutes following ET-1 administration,returned to baseline
same,"perfusion in the breast tissue of tumor-bearing rats, increase compared to normal rats",[2]; at 30 minutes following ET-1 administration,176%
same,"CMBC in tumor-bearing rats, increase as compared to normal rats",[2]; at 60 minutes post ET-1 administration,54%
same,CMBC in tumor-bearing rats,[2]; at 120 minutes after ET-1 administration,returned to baseline
same,blood perfusion in the breast tissue,"[2]; normal rats, after ET-1 50 ng/kg/min infusion",did not significantly change
same,"velocity of RBC, increase compared to normal rats","[2]; tumor-bearing rats, at 30 minutes post ET-1 administration",252%
same,"vascular resistance in tumor-bearing rats, difference compared to normal rats",[3]; at 60 minutes following ET-1 administration,147%
same,increase in blood flow to the breast tissue of tumor-bearing rats as compared to normal rats,[3]; at 60 minutes following administration of ET-1 50 ng/kg/min,153%
same,change in blood flow to the breast tissue,[3]; [9],No significant change
same,change in vascular resistance in breast tissue,[3]; [9],No significant change
same,change in HR,[4]; normal rats,No significant change
same,increase in MAP,"[4]; normal rats, at 30 minutes",14.5%
same,CO decrease,"[4]; normal rats, at 60 minutes",22.9%
same,SV decrease,"[4]; normal rats, at 60 minutes",20.9%
same,CO decrease,"[4]; normal rats, at 120 minutes",42.5%
same,SV decrease,"[4]; normal rats, at 120 minutes",36%
same,TPR increase,"[4]; normal rats, at 120 minutes",49.2%
same,decrease in MAP,"[4]; normal rats, at 120 minutes",17.8%
same,increase in MAP,"[4]; tumor-bearing (MNU treated) rats, at 30 minutes",19.1%
same,increase in MAP,"[4]; tumor-bearing (MNU treated) rats, at 60 minutes",15.3%
same,change in HR,[4]; tumor-bearing rats,No change
same,CO decrease,[4]; [10],29.4%
same,SV decrease,[4]; [10],31.1%
same,TPR increase,[4]; [10],73.9%
same,CO decrease,[4]; [11],16.7%
same,SV decrease,[4]; [11],17.9%
same,TPR increase,[4]; [11],39.7%
same,CO decrease,[4]; [12],36.1%
same,SV decrease,[4]; [12],32.1%
same,TPR increase,[4]; [12],71.4%
CC(=O)O[C@H]1C(=O)[C@@]2(C)[C@H]([C@H](OC(=O)c3ccccc3)[C@]3(O)C[C@H](OC(=O)[C@H](O)[C@@H](NC(=O)c4ccccc4)c4ccccc4)C(C)=C1C3(C)C)[C@]1(OC(C)=O)CO[C@@H]1C[C@@H]2O [paclitaxel],tumor [^3H]paclitaxel concentration,[5],40.77 nmol/g tissue
same,percent of tumors progressed,[6],71.4% and 61.1%
same,percent of tumors regressing in size,[6],9.5%
same,percent of tumors remaining in stasis,[6],22.2% and 19.5%
same,reduction in tumor volume as compared to control rats,[6],60.0%
same,regression (FIG. 13),[6],33.8±19.4%
same,"tumor multiplicity, new tumor occurrence",[6],78.3% and 41%
same,tumor regression rate,[6],37.7±16.2%
same,tumor volume,[6],1960.8±611.9 mm^3 and 1682.7±497.3 mm^3
same,tumors regressed compared to control rats,[6],45.9±11.5%
same,MRT,in vivo,27.9 ± 19.8 h
same,half-life,in vivo,1.8 ± 0.6 min
same,Cmax,"in vivo; iv, 3 nmol/kg",6.73 ± 0.54 µg/mL
same,MRT,"in vivo; iv, 3 nmol/kg",27.9 ± 19.8 h
same,MRT inf,"in vivo; iv, 3 nmol/kg",17.4 ± 8.13 h
same,AUC(0-inf),"in vivo; iv, 3 nmol/kg, AUC0-∞",9.42 ± 3.18 µg·h/mL
same,clearance,"in vivo; iv, 3 nmol/kg, Cl",0.69 L/h/kg
same,Vd,"in vivo; iv, 3 nmol/kg, Vd",10.1 ± 4.18 L/kg
same,Vd,"in vivo; iv, 3 nmol/kg, Vss",10.3 ± 4.54 L/kg
same,K10,"[7]; female, Sprague Dawley",3.14 ± 1.34
same,K12,"[7]; female, Sprague Dawley",56.47 ± 27.69
same,K13,"[7]; female, Sprague Dawley",5.71 ± 3.37
same,βt½,"[7]; female, Sprague Dawley",1.0 ± 0.32 h
same,γt½,"[7]; female, Sprague Dawley",25.87 ± 17.81 h
same,AUC of paclitaxel,"[7]; female, Sprague Dawley, iv",9.43353 ± 1.465 µg·h/mL
same,elimination half-life of paclitaxel,"[7]; female, Sprague Dawley, iv",8.4 ± 4.8 min
same,AUC0-∞,[7]; [13],9.43 ± 1.47 µg·h/mL
same,Cl,[7]; [13],0.56 ± 0.07 L/h/kg
same,Vss,[7]; [13],8.14 ± 2.95 L/kg
same,α t1/2,[7]; [13],0.03 ± 0.01
same,β t1/2,[7]; [13],1.0 ± 0.32
same,γ t1/2,[7]; [13],25.87 ± 17.81
same,clearance calculated as Dose/AUC,[7],0.56 ± 0.07 L/h/kg
"COc1cccc2c1C(=O)c1c(O)c3c(c(O)c1C2=O)C[C@@](O)(C(=O)CO)C[C@@H]3O[C@H]1C[C@H](N)[C@H](O)[C@H](C)O1 [saline+DOX, doxorubicin]",maximum decrease in body weight,[8],−8.46±3.88
